Reference: ChEMBL document CHEMBL1148744, “Synthesis and antiviral and cytostatic evaluations of the new C-5 substituted pyrimidine and furo[2,3-d]pyrimidine 4',5'-didehydro-L-ascorbic acid derivatives” (J Med Chem, 2007)
Values after ≈ are worked out from the molar mass of the structure shown.

Tested on: Vaccinia virus
Test: Antiviral activity against Vaccinia virus in HEL cells assessed as reduction of virus-induced cytopathogenicity
Type: functional
Conditions: Orthopoxvirus vaccinia

SMILES | MIC [µM]
O=c1[nH]c(=O)n([C@H]2C[C@H](O)[C@@H](CO)O2)cc1/C=C/Br [BRIVUDINE] | 2 (≈ 0.666 µg/mL)
NC(=O)c1ncn([C@@H]2O[C@H](CO)[C@@H](O)[C@H]2O)n1 [RIBAVIRIN] | 150 (≈ 36.6 µg/mL)
Nc1nc2c(ncn2COCCO)c(=O)[nH]1 [ACYCLOVIR] | > 250
Nc1nc2c(ncn2COC(CO)CO)c(=O)[nH]1 [GANCICLOVIR] | 100 (≈ 25.5 µg/mL)
